The results in this text go back to patent publication US12037354B2, “Cyclic pantetheine derivatives and uses thereof” (VectivBio Comet AG, priority 2018, dated 2024).

The test system of the test is HepG2 cells. The test can be described thus: Glucose uptake Glo Assay, Example 821. Type of test: cell-based. Particulars: for activation at 10 µM / activation at 50 µM: Homo sapiens, 20 min, read-out: % increase in Glucose Uptake. On the procedure:
The effect of compounds from the present disclosure on glucose uptake was determined in HepG2 cells (ATCC, HB-8065) using the glucose uptake Glo Assay Kit (Promega, 11343 according to manufacturer instructions. HepG2 cells were cultured in complete DMEM-glucose media (Gibco) supplemented with 10% FBS (37° C. incubator with 5% CO2) and seeded in 96-well plates at 30,000 cells/well. After removing the complete media, 100 μL/well of serum-free, high-glucose DMEM media were added to the wells and incubated overnight (37° C. incubator with 5% CO2). Media was then replaced with 100 μl/well DPBS containing 0.6°/o BSA and starved for 1 hour. Next, DPBS was removed and 45 μl/well of insulin (100 nM) or compounds (10 μM-50 μM) were added to the wells and incubated for 10 minutes (37° C. incubator with 5% CO2). Insulin and compounds were prepared in DPBS with 0.6% BSA with a final DMSO concentration of 0.1%. Next, 5 μl of 2DG (10 mM) in DPBS were added per well and allowed to incubate for 20 minutes followed by addition of 25 μl stop buffer. 37.5 μl of the mixture were then transferred to a new plate and 12.5 μl of Neutralization buffer added to the wells. After, 50 μl of 2DG6P detection Reagent were added and incubated for 0.5-1 hour at room temperature. Luminescence was measured with 0.3-1 second integration on a luminometer.

Read-outs that look alike come from different tables or passages of the source.

As to `CC1(C)COP(=O)(O)O[C@H]1C(=O)NCCC(=O)NCCSC(=O)CCC(=O)O` [Compound 1], where the note is “10 uM (Example 968)”, the activation at 10 µM is no less than 30%.

Regarding `CC(=O)SCCNC(=O)CCNC(=O)[C@@H]1OP(=O)(O)OCC1(C)C` [Compound 2], under “10 uM (Example 970)”, the activation at 10 µM is no less than 10%.

In the case of `CC1(C)COP(=O)(O)O[C@H]1C(=O)NCCC(=O)NCCSC(=O)CC(=O)CCC(=O)O` [Compound 3], the activation at 10 µM (10 uM) is no less than 10%. Moreover, the “% increase in Glucose Uptake” value (concentration tested 10 uM) is recorded as no less than 10%.

Turning to `CC1(C)COP(=O)(O)O[C@H]1C(=O)NCCC(=O)NCCSC(=O)/C=C/C(=O)O` [Compound 20], for the setting “50 uM”, the activation at 50 µM was no less than 30%. Moreover, for the setting “concentration tested 50 uM”, the “% increase in Glucose Uptake” value was no less than 30%.

Take `C[C@@H](O)CC(=O)SCCNC(=O)CCNC(=O)[C@@H]1OP(=O)(O)OCC1(C)C` [Compound 39]: where the note is “50 uM”, the activation at 50 µM was no less than 10%. Where the note is “concentration tested 50 uM”, the “% increase in Glucose Uptake” value is no less than 10%.

Consider `CC(CC(=O)SCCNC(=O)CCNC(=O)[C@@H]1OP(=O)(O)OCC1(C)C)O[C@H](CC(=O)[O-])C[N+](C)(C)C` (stereo partly drawn) [Compound 47], for which the activation at 50 µM (50 uM (Example 966)) is no less than 10%.

For `COC(=O)CC(SCCNC(=O)CCNC(=O)[C@@H]1OP(=O)(O)OCC1(C)C)C(=O)OCC[N+](C)(C)C` (stereo partly drawn) [Compound 57], the activation at 50 µM (50 uM (Example 971)) was no less than 20%.

Turning to `COC(=O)[C@H](C)NP1(=O)OCC(C)(C)[C@H](C(=O)NCCC(=O)NCCSC(=O)CCC(=O)O)O1` (stereo partly drawn) [Compound 63], the activation at 50 µM (50 uM (Example 967)) was no less than 30%.

Turning to `COP1(=O)OCC(C)(C)[C@H](C(=O)NCCC(=O)NCCSC(=O)CC(=O)/C=C/C(=O)O)O1` (stereo partly drawn) [Compound 117], the activation at 10 µM (10 uM (Example 970)) is no less than 30%.

As to `C/C=C/C(=O)SCCNC(=O)CCNC(=O)[C@@H]1OP(=O)(OC)OCC1(C)C` (stereo partly drawn) [Compound 141], the activation at 50 µM (50 uM (Example 969)) was no less than 30%.

Consider `C/C=C/C(=O)SCCNC(=O)CCNC(=O)[C@@H]1OP(=O)(N[C@@H](C)C(=O)OC)OCC1(C)C` (stereo partly drawn) [Compound 144], for which the activation at 50 µM (50 uM (Example 969)) is no less than 30%.

`C/C=C/C(=O)SCCNC(=O)CCNC(=O)[C@@H]1OP(=O)(N[C@@H](C)C(=O)O)OCC1(C)C` (stereo partly drawn) [Compound 145]: the activation at 10 µM (10 uM (Example 970)) is no less than 30%.

Turning to `COC(=O)[C@H](C)NP1(=O)OCC(C)(C)[C@H](C(=O)NCCC(=O)NCCSC(=O)CC(C)=O)O1` (stereo partly drawn) [Compound 157], the activation at 50 µM (50 uM (Example 971)) is no less than 20%.

With `CCOP1(=O)OCC(C)(C)[C@H](C(=O)NCCC(=O)NCCSC(=O)CC(=O)CC(=O)CCC(=O)O)O1` (stereo partly drawn) [Compound 183], where the note is “10 uM (Example 970)”, the activation at 10 µM was no less than 30%.

Regarding `COC(=O)[C@H](C)NP1(=O)OCC(C)(C)[C@H](C(=O)NCCC(=O)NCCSC(=O)CC(=O)CC(=O)CCC(=O)O)O1` (stereo partly drawn) [Compound 185], the activation at 50 µM (50 uM (Example 970)) was no less than 30%.

Regarding `CCOC(=O)CCC(=O)CC(=O)CC(=O)SCCNC(=O)CCNC(=O)[C@@H]1OP(=O)(OC)OCC1(C)C` (stereo partly drawn) [Compound 211], the activation at 50 µM (50 uM (Example 969)) was no less than 30%.

Turning to `CCOC(=O)CCC(=O)CC(=O)CC(=O)SCCNC(=O)CCNC(=O)[C@@H]1OP(=O)(N[C@@H](C)C(=O)OC)OCC1(C)C` (stereo partly drawn) [Compound 213], for the setting “50 uM (Example 970)”, the activation at 50 µM is no less than 30%.

`CCOC(=O)CCC(=O)CC(=O)CC(=O)SCCNC(=O)CCNC(=O)[C@@H]1OP(=O)(OCC[N+](C)(C)C)OCC1(C)C` (stereo partly drawn) [Compound 214]: where the note is “10 uM (Example 972)”, the activation at 10 µM was no less than 20%.

On to `COC(=O)CC(SCCNC(=O)CCNC(=O)[C@@H]1OP(=O)(N[C@@H](C)C(=O)OC)OCC1(C)C)C(=O)OC` (stereo partly drawn) [Compound 370], for which the activation at 50 µM (50 uM (Example 969)) is no less than 30%.

On to `COC(=O)CC(SCCNC(=O)CCNC(=O)[C@@H]1OP(=O)(OCC[N+](C)(C)C)OCC1(C)C)C(=O)OC` (stereo partly drawn) [Compound 371], for which the activation at 10 µM (10 uM (Example 969)) is no less than 30%.

Regarding `COC(=O)C(CC(=O)O)SCCNC(=O)CCNC(=O)[C@@H]1OP(=O)(OC)OCC1(C)C` (stereo partly drawn) [Compound 382], the activation at 50 µM (50 uM (Example 970)) was no less than 30%.

Turning to `COC(=O)C(CC(=O)OCC[N+](C)(C)C)SCCNC(=O)CCNC(=O)[C@@H]1OP(=O)(Oc2ccccc2)OCC1(C)C` (stereo partly drawn) [Compound 393], the activation at 10 µM (10 uM (Example 970)) is no less than 30%.

As to `COP1(=O)OCC(C)(C)[C@H](C(=O)NCCC(=O)NCCSC(CC(=O)OCC[N+](C)(C)C)C(=O)O)O1` (stereo partly drawn) [Compound 397], under “10 uM (Example 969)”, the activation at 10 µM is no less than 20%.

As to `CCOC(=O)CC(SCCNC(=O)CCNC(=O)[C@@H]1OP(=O)(OC)OCC1(C)C)C(=O)OCC[N+](C)(C)C` (stereo partly drawn) [Compound 410], the activation at 50 µM (50 uM (Example 969)) is no less than 30%.

For `CC1(C)COC(=O)O[C@H]1C(=O)NCCC(=O)NCCSC(=O)CC(=O)CCC(=O)OCC[N+](C)(C)C` [Compound 460], the activation at 50 µM (50 uM (Example 969)) was no less than 30%.

Take `C[C@@H](O)CC(=O)SCCNC(=O)CCNC(=O)[C@@H]1OC(=O)OCC1(C)C` [Compound 485]: under “50 uM”, the activation at 50 µM was no less than 10%. For the setting “concentration tested 50 uM”, the “% increase in Glucose Uptake” value is no less than 10%.

As to `COC(=O)C(CC(=O)O)SCCNC(=O)CCNC(=O)[C@@H]1OC(=O)OCC1(C)C` (stereo partly drawn) [Compound 498], where the note is “50 uM (Example 971)”, the activation at 50 µM is no less than 10%.

With `COC(=O)CC(SCCNC(=O)CCNC(=O)[C@@H]1OC(=O)OCC1(C)C)C(=O)OCC[N+](C)(C)C` (stereo partly drawn) [Compound 503], the activation at 50 µM (50 uM (Example 972)) is no less than 20%.

In the case of `COC(=O)CC1(C)OCC(C)(C)[C@H](C(=O)NCCC(=O)NCCSC(=O)CCC(=O)O)O1` (stereo partly drawn) [Compound 609], for the setting “10 uM”, the activation at 10 µM is no less than 10%. In addition, where the note is “concentration tested 10 uM”, the “% increase in Glucose Uptake” value is reported as no less than 10%.

Turning to `COC(=O)CCC(=O)SCCNC(=O)CCNC(=O)[C@@H]1OC(C)(C)OCC1(C)C` [Compound 852, methyl 4-oxo-4-[[2-(3-[[(4R)-2,2,5,5-tetramethyl-1,3-dioxan-4-yl]formamido]propanamido)ethyl]sulfanyl]butanoate], the activation at 50 µM (50 uM) was no less than 20%. Further, the “% increase in Glucose Uptake” value (concentration tested 50 uM) was no less than 20%.

Consider `CC(=O)NCCCC(=O)SCCNC(=O)CCNC(=O)[C@@H]1OC(C)(C)OCC1(C)C` [Compound 853], for which the “% increase in Glucose Uptake” value (10 uM (Example 973)) is no less than 30%. For the same compound, under “10 uM”, the activation at 10 µM was no less than 30%.

As to `CCCCCCC(=O)SCCNC(=O)CCNC(=O)[C@@H]1OC(C)(C)OCC1(C)C` [Compound 855, N-[2-(heptanoylsulfanyl)ethyl]-3-[[(4R)-2,2,5,5-tetramethyl-1,3-dioxan-4-yl]formamido]propanamide], the activation at 50 µM (50 uM) was no less than 30%. Further, the “% increase in Glucose Uptake” value (concentration tested 50 uM) is no less than 30%.

Take `COC(=O)C(=O)SCCNC(=O)CCNC(=O)[C@@H]1OC(C)(C)OCC1(C)C` [Compound 856]: under “10 uM (Example 973)”, the “% increase in Glucose Uptake” value is given as no less than 30%. Also, the activation at 10 µM (10 uM) was no less than 30%.

In the case of `COC(=O)/C=C/C(=O)SCCNC(=O)CCNC(=O)[C@@H]1OC(C)(C)OCC1(C)C` [Compound 858, methyl (2E)-4-oxo-4-[[2-(3-[[(4R)-2,2,5,5-tetramethyl-1,3-dioxan-4-yl]formamido]propanamido)ethyl]sulfanyl]but-2-enoate], the “% increase in Glucose Uptake” value (10 uM (Example 973)) is no less than 30%. Besides, the activation at 10 µM (10 uM) was no less than 30%.

As to `CC(=O)CC(=O)SCCNC(=O)CCNC(=O)[C@@H]1OC(C)(C)OCC1(C)C` [Compound 860, N-[2-[(3-oxobutanoyl)sulfanyl]ethyl]-3-[[(4R)-2,2,5,5-tetramethyl-1,3-dioxan-4-yl]formamido]propanamide], the activation at 50 µM (50 uM) was no less than 10%. Also, the “% increase in Glucose Uptake” value (concentration tested 50 uM) is on record as no less than 10%.

On to `CCC(=O)SCCNC(=O)CCNC(=O)[C@@H]1OC(C)(C)OCC1(C)C` [Compound 861, N-[2-(propanoylsulfanyl)ethyl]-3-[[(4R)-2,2,5,5-tetramethyl-1,3-dioxan-4-yl]formamido]propanamide], for which, under “50 uM”, the activation at 50 µM is no less than 20%. Besides, the “% increase in Glucose Uptake” value (concentration tested 50 uM) is reported as no less than 20%.

Regarding `CC1(C)COP(=O)(OCc2ccccc2)O[C@H]1C(=O)NCCC(=O)NCCS` (stereo partly drawn) [Compound 862], under “10 uM”, the activation at 10 µM was no less than 20%. Besides, the activation at 50 µM (50 uM) was no less than 10%. In addition, the “% increase in Glucose Uptake” value is listed as no less than 20% (concentration tested 10 uM) and no less than 10% (concentration tested 50 uM).

`COC(=O)CCC(=O)SCCNC(=O)CCNC(=O)[C@@H]1OP(=O)(OCc2ccccc2)OCC1(C)C` (stereo partly drawn) [Compound 863]: the activation at 50 µM (50 uM) was no less than 10%. For the setting “concentration tested 50 uM”, the “% increase in Glucose Uptake” value was no less than 10%.

`C[C@@H](O)CC(=O)SCCNC(=O)CCNC(=O)[C@@H]1OP(=O)(OCc2ccccc2)OCC1(C)C` (stereo partly drawn) [Compound 864]: the activation at 50 µM (50 uM) was no less than 20%. The “% increase in Glucose Uptake” value (concentration tested 50 uM) is given as no less than 20%.

With `CCOP1(=O)OCC(C)(C)[C@H](C(=O)NCCC(=O)NCCS)O1` (stereo partly drawn) [Compound 865], the activation at 10 µM (10 uM) was no less than 20%. For the same compound, under “concentration tested 10 uM”, the “% increase in Glucose Uptake” value was no less than 20%.

For `COC(=O)CC1(C)OCC(C)(C)[C@H](C(=O)NCCC(=O)NCCS)O1` (stereo partly drawn) [Compound 866], the “% increase in Glucose Uptake” value (10 uM (Example 973)) is no less than 30%. Where the note is “10 uM”, the activation at 10 µM is no less than 30%.
